Measurements from patent US20260092073A1, “NOVEL COMPOUNDS” (Hoffmann-La Roche Inc., priority 2023, published 2026).

Columns and labels:
[1] = molecular target: T1, hERG cardiac potassium channel (Homo sapiens, UniProt Q12809); assay: hERG screening assay (automated patch clamp, CHO-hERG cells); format: cell-based; settings: CHO crelox hERG cells (CHO cells that express hERG), whole-cell patch clamp, 35-37° C.
T1 construct: Evotec (cryopreserved) ATCC PTA-6812; host or cells: CHO crelox hERG cell line (Chinese hamster)
T1 sequence (Q12809 whole entry): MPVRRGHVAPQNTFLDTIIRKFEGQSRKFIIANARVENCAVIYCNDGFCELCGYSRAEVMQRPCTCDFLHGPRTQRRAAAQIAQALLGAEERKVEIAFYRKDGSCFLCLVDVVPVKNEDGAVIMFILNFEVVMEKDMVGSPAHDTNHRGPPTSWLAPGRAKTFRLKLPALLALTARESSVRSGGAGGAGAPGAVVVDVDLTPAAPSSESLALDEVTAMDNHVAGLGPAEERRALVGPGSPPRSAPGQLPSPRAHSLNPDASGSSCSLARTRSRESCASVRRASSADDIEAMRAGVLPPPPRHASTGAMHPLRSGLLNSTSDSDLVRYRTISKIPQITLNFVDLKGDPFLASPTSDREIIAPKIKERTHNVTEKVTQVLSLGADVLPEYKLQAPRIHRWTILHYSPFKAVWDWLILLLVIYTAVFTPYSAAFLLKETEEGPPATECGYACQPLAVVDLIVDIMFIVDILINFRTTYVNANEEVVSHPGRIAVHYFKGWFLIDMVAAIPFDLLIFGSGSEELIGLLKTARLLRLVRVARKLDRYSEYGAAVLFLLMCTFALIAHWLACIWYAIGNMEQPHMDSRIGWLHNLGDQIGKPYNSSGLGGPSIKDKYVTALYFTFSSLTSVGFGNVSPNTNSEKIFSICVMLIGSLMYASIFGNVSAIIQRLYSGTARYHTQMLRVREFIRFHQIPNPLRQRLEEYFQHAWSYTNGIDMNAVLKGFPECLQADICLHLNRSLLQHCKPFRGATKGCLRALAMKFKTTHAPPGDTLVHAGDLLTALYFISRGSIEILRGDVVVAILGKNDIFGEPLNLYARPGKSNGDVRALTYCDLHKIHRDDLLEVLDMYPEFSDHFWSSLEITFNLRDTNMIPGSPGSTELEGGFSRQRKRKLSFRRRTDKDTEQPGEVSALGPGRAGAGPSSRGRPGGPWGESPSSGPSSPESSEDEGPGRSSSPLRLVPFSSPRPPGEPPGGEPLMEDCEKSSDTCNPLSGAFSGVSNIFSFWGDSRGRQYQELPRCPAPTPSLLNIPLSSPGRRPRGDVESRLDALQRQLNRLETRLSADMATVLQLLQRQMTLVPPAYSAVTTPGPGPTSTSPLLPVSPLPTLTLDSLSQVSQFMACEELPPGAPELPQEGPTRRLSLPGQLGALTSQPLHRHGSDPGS
Text: In the drug development process of small molecules, one of the most frequent adverse side effects, leading to the failure of drugs, is the cardiac arrhythmias. Such failure is often related to the capacity of the drug to inhibit the human ether-à-go-go-related gene (hERG) cardiac potassium channel. Having no or low inhibition of the hERG cardiac potassium channel is therefore considered as beneficial.
The CHO crelox hERG cell line (ATCC reference Nr. PTA-6812, female Chinese hamster cells) was generated and validated at Roche. Ready-to-use frozen instant CHO-hERG cells were cryopreserved at Evotec (Germany) and used directly in the experiments.
The extracellular solution contains (in mM): NaCl 150; KCl 4; CaCl2 1; MgCl2 1; HEPES 10; pH 7.2-7.4 with NaOH, osmolarity 290-330 mOsm. The internal solution contains (in mM): KCl, 10; KF, 100; NaCl, 10; HEPES, 10; EGTA, 20; pH=7.0-7.4 with KOH, osmolarity 260-300 mOsm.
The effects of a compound on hERG K+-currents parameters will be evaluated at 2 concentrations in at least 4 cells.
The hERG test is performed using automated patch clamp system SynchroPatch® 384 (Nanion Technologies GmbH, Germany). K+ currents are measured with the patch-voltage-clamp technique in the whole-cell configuration at 35-37° C.
The amplitudes of IKhERG were recorded in each concentration of drug and they were compared to the vehicle control values (taken as 100%) to define fractional blocks. The concentration-response data were fitted with the following relationship:
Concentration-response curves were fitted by non-linear regression analysis using EworkBook suite (ID Business Solutions Ltd, UK). Data fit was done with the 4 Parameter Logistic Model (fit=(A+(B/(1+((x/C)^D)))), where A=0 and B=100).

NLRP3 [2] = molecular target: T2, NLRP3 (Homo sapiens, UniProt Q96P20); assay: THP-1 cells pyroptosis assay; format: cell-based; parameters: Seed THP-1 cells (25,000 cells/well) containing 1.0 μg/ml LPS; host or cells: THP-1 cells, LPS-primed, nigericin-stimulated; settings: LPS 1.0 μg/ml, nigericin 5 μM, resazurin readout
T2 sequence (Q96P20 whole entry): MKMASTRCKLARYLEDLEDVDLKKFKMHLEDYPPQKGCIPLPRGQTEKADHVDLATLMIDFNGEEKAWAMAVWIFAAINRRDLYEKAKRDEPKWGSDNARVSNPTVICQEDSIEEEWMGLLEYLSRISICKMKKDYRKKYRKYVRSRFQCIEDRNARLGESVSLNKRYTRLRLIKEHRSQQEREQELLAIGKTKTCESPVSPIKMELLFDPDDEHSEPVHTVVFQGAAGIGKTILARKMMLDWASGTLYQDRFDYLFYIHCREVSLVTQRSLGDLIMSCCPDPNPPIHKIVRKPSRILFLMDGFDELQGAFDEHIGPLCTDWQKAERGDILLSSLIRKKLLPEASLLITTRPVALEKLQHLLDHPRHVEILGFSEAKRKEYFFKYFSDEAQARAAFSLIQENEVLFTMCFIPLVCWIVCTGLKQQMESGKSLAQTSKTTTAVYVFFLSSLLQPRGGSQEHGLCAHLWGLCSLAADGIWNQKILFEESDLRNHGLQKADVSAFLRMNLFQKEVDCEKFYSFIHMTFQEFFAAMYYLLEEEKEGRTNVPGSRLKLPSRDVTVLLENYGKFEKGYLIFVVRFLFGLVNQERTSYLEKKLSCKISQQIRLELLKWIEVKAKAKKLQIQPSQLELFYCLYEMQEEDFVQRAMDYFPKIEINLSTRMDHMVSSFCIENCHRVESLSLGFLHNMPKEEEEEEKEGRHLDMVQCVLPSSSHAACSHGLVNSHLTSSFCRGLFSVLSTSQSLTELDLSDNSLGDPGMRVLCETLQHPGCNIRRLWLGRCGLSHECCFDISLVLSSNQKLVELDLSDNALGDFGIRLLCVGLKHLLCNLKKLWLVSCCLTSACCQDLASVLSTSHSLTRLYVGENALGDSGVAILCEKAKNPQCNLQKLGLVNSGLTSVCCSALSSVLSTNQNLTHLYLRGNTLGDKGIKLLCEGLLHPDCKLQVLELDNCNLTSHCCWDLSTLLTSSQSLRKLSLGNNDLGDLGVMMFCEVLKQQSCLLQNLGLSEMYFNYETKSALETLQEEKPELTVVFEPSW
Text: It is well established that the activation of NLRP3 leads to cell pyroptosis and this feature plays an important part in the manifestation of clinical disease (Yan-gang Liu et al., Cell Death & Disease, 2017, 8(2), e2579; Alexander Wree et al., Hepatology, 2014, 59(3), 898-910; Alex Baldwin et al., Journal of Medicinal Chemistry, 2016, 59(5), 1691-1710; Ema Ozaki et al., Journal of Inflammation Research, 2015, 8, 15-27; Zhen Xie & Gang Zhao, Neuroimmunology Neuroinflammation, 2014, 1(2), 60-65; Mattia Cocco et al., Journal of Medicinal Chemistry, 2014, 57(24), 10366-10382; T. Satoh et al., Cell Death & Disease, 2013, 4, e644). Therefore, it is anticipated that inhibitors of NLRP3 will block pyroptosis, as well as the release of pro-inflammatory cytokines (e.g. […]) from the cell.
THP-1 cells (ATCC #TIB-202) were grown in RPMI containing L-glutamine (Gibco #11835) supplemented with 1 mM sodium pyruvate (Sigma #S8636) and penicillin (100 units/ml)/streptomycin (0.1 mg/ml) (Sigma #P4333) in 10% Fetal Bovine Serum (FBS) (Sigma #F0804). The cells were routinely passaged and grown to confluency (˜10^6 cells/ml). On the day of the experiment, THP-1 cells were harvested and resuspended into RPMI medium (without FBS). The cells were then counted and viability (>90%) checked by Trypan blue (Sigma #T8154). Appropriate dilutions were made to give a concentration of 625,000 cells/ml. To this diluted cell solution was added LPS (Sigma #L4524) to give a […] Final Assay Concentration (FAC). 40 μl of the final preparation was aliquoted into each well of a 96-well plate. The plate thus prepared was used for compound screening.
The following method step-by-step assay was followed for compound screening.
Seed THP-1 cells (25,000 cells/well) containing 1.0 μg/ml LPS in 40 μl of RPMI medium (without FBS) in 96-well, black walled, clear bottom cell culture plates coated with poly-D-lysine (VWR #734-0317)
Add 5 μl compound (8 points half-log dilution, with 10 μM top dose) or vehicle (DMSO 0.1% FAC) to the appropriate wells
(§1) Incubate for 3 hours at 37° C., 5% CO2
Add 5 μl nigericin (Sigma #N7143) (FAC 5 μM) to all wells
(§2) Incubate for 1 hr at 37° C., 5% CO2
At the end of the incubation period, spin plates at 300 xg for 3 mins and remove supernatant
Then add 50 μl of resazurin (Sigma #R7017) (FAC 100 μM resazurin in RPMI medium without FBS) and incubate plates for a further 1-2 hours at 37° C. and 5% CO2
Plates were read in an Envision reader at Ex 560 nm and Em 590 nm
(§3) IC50 data is fitted to a non-linear regression equation (log inhibitor vs response-variable slope 4-parameters)

NLRP3 [3] = molecular target: T2, NLRP3; assay: Human whole blood IL-1β release assay; format: cell-based; parameters: Human whole blood in Li-heparin tubes was obtained from healthy donors; from tissue; host or cells: human whole blood from healthy donors; settings: LPS, nigericin 10 μM, IL-1β by AlphaLisa
Experimental: For systemic delivery, the ability to inhibit NLRP3 when the compounds are present within the bloodstream is of great importance. For this reason, the NLRP3 inhibitory activity of a number of compounds in human whole blood was investigated in accordance with the following protocol.
Human whole blood in Li-heparin tubes was obtained from healthy donors from a volunteer donor panel.
Plate out 80 μl of whole blood containing […] of LPS in 96-well, clear bottom cell culture plate (Corning #3585)
Add 10 μl compound (8 points half-log dilution with 10 μM top dose) or vehicle (DMSO 0.1% FAC) to the appropriate wells
as §1
Add 10 μl nigericin (Sigma #N7143) (10 μM FAC) to all wells
as §2
At the end of the incubation period, spin plates at 300 xg for 5 mins to pellet cells and remove 20 μl of supernatant and add to 96-well v-bottom plates for IL-1β analysis (note: these plates containing the supernatants can be stored at −80° C. to be analysed at a later date)
IL-1β was measured according to the manufacturer protocol (Perkin Elmer-AlphaLisa IL-1 Kit AL220F-5000)
as §3

human P-gp = molecular target: T3, human P-gp (Homo sapiens, UniProt P08183); assay: Transcellular human P-gp assay (transfected LLC-PK1 cells); format: in vitro ADME; settings: LLC-PK1 cells over-expressing human P-gp
T3 construct: expressed in transfected cells; host or cells: LLC-PK1 (porcine kidney epithelial cells)
T3 sequence (P08183 whole entry): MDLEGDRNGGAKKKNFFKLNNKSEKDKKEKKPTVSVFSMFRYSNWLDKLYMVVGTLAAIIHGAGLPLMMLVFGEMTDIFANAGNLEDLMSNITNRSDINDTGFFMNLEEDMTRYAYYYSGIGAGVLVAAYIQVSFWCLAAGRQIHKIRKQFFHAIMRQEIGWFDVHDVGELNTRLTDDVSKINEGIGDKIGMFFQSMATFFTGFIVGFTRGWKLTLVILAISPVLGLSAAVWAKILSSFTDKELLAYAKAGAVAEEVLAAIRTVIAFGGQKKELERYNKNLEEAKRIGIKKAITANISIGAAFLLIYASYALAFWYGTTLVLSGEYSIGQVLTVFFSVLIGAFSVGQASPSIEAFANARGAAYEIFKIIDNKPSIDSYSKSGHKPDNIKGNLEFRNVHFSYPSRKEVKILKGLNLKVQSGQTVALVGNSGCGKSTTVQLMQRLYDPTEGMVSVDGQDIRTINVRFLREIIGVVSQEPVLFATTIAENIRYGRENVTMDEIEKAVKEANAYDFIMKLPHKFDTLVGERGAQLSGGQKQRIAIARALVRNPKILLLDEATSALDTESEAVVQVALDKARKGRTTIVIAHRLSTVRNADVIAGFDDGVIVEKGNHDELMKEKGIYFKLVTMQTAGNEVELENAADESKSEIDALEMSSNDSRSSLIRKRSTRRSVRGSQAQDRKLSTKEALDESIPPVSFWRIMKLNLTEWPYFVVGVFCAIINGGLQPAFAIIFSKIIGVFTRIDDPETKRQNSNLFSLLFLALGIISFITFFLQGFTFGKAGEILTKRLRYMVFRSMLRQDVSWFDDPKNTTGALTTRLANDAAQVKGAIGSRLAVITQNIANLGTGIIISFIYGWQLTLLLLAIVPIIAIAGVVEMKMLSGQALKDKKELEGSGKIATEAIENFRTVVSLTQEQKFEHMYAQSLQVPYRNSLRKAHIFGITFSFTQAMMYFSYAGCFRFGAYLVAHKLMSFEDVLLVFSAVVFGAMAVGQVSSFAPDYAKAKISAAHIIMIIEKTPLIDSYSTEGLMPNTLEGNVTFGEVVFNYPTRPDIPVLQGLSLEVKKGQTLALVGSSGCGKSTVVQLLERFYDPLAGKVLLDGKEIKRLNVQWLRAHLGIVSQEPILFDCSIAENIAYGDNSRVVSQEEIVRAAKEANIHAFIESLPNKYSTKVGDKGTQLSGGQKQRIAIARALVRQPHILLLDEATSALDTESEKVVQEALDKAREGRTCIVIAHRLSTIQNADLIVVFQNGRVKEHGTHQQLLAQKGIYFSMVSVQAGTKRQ
Text: The general assay uses transfected LLC-PK1 cells (porcine kidney epithelial cells) over-expressing human or mouse P-gp, cultured on 96 well semi-permeable filter membrane plates, where they form a polarized monolayer with tight junctions, and act as a barrier between the apical and basolateral compartment.
P-gp is expressed in the apical-facing membrane of the monolayer. […] J. Pharmacol. Exp Ther., 2021, 376, 322-329.

Compound	IC50 (NLRP3 [2])	IC50 (NLRP3 [3])	efflux ratio (human P-gp; read-out: ER (efflux ratio))	Papp (human P-gp; read-out: Permeability)	IC20 [1]
Cc1cc2c(c(O)c1-c1cnc3oc(N[C@@H]4CCCN(CCO)C4)nc3n1)CCC2 [Example 18, 5-[2-[[(3R)-1-(2-Hydroxyethyl)-3-piperidyl]amino]oxazolo[4,5-b]pyrazin-5-yl]-6-methyl-indan-4-ol]	0.002 µM	–	–	–	6.3 µM
Cc1cc2c(c(O)c1-c1ccc3oc(N[C@@H]4CCCN(CCO)C4)nc3n1)CCO2 [Example 14, 5-[2-[[(3R)-1-(2-Hydroxyethyl)-3-piperidyl]amino]oxazolo[4,5-b]pyridin-5-yl]-6-methyl-2,3-dihydrobenzofuran-4-ol]	0.0006 µM	0.022 µM	4	135 nm/s	–
COCc1cc2c(c(O)c1-c1cnc3oc(N[C@@H]4CCCN(CCO)C4)nc3n1)CCO2 [Example 11, 5-[2-[[(3R)-1-(2-Hydroxyethyl)-3-piperidyl]amino]oxazolo[4,5-b]pyrazin-5-yl]-6-(methoxymethyl)-2,3-dihydrobenzofuran-4-ol]	0.004 µM	0.008 µM	–	–	–
COCc1cc2c(c(O)c1-c1ccc3oc(N[C@@H]4CCCN(CCO)C4)nc3n1)CCO2 [Example 12, 5-[2-[[(3R)-1-(2-Hydroxyethyl)-3-piperidyl]amino]oxazolo[4,5-b]pyridin-5-yl]-6-(methoxymethyl)-2,3-dihydrobenzofuran-4-ol]	0.008 µM	0.015 µM	–	–	> 10 µM
Cc1cc(C#N)cc(O)c1-c1cnc2oc(N[C@@H]3CCCN(CCO)C3)nc2n1 [Example 10, 3-Hydroxy-4-[2-[[(3R)-1-(2-hydroxyethyl)-3-piperidyl]amino]oxazolo[4,5-b]pyrazin-5-yl]-5-methyl-benzonitrile]	0.005 µM	0.029 µM	–	–	–
Cc1cc(C#N)cc(O)c1-c1ccc2oc(N[C@@H]3CCCN(CCc4ncco4)C3)nc2n1 [Example 4, 3-Hydroxy-5-methyl-4-[2-[[(3R)-1-(2-oxazol-2-ylethyl)-3-piperidyl]amino]oxazolo[4,5-b]pyridin-5-yl]benzonitrile]	0.0261 µM	0.192 µM	–	–	–

More lines, main results first:

IC50 (NLRP3 [2])	IC50 (NLRP3 [3])	efflux ratio (human P-gp; read-out: ER (efflux ratio))	Papp (human P-gp; read-out: Permeability)	Compound	IC20 [1]
0.034 µM	0.033 µM	–	–	COCc1cc(C#N)cc(O)c1-c1cnc2oc(N[C@@H]3CCCN(CCO)C3)nc2n1 [Example 15, 3-Hydroxy-4-[2-[[(3R)-1-(2-hydroxyethyl)-3-piperidyl]amino]oxazolo[4,5-b]pyrazin-5-yl]-5-(methoxymethyl)benzonitrile;2,2,2-trifluoroacetic Acid]	> 10 µM
0.005 µM	0.039 µM	–	–	COc1cc(-c2c(C)cc3c(c2O)CCO3)nc2nc(N[C@@H]3CCCN(CCO)C3)oc12 [Example 22, 5-[2-[[(3R)-1-(2-Hydroxyethyl)-3-piperidyl]amino]-7-methoxy-oxazolo[4,5-b]pyridin-5-yl]-6-methyl-2,3-dihydrobenzofuran-4-ol]	–
0.075 µM	0.068 µM	–	–	COCc1cc(C#N)cc(O)c1-c1cc(OC)c2oc(N[C@@H]3CCCN(CCO)C3)nc2n1 [Example 20, 3-Hydroxy-4-[2-[[(3R)-1-(2-hydroxyethyl)-3-piperidyl]amino]-7-methoxy-oxazolo[4,5-b]pyridin-5-yl]-5-(methoxymethyl)benzonitrile]	–
